Measured values from ChEMBL document CHEMBL3045028, “Synthesis, AntiBacteriol, and Antifungal Activities of Some New Benzimidazoles” (1992).
Activity calls are given as the source filed them. The rule behind the calls is not given here.

Columns and labels:
Format in all cases: functional
Agrobacterium sp. = assay: In vitro antibacterial activity against Agrobacterium radiobacter pv. tumefaciens assessed as inhibition at 0.1 %
[1] = system: Xanthomonas campestris pv. campestris; assay: In vitro antibacterial activity against Xanthomonas campestris pv. campestris KF2 assessed as inhibition at 0.1 %
[2] = system: Xanthomonas euvesicatoria; assay: In vitro antibacterial activity against Xanthomonas euvesicatoria P-2092 assessed as inhibition at 0.1 %
[3] = system: Agrobacterium tumefaciens; assay: In vivo antibacterial activity against Agrobacterium tumefaciens infected carrots assessed as effective at 0.01%
Botrytis cinerea = assay: In vitro antifungal activity against Botryotinia fuckeliana assessed as inhibition at 0.1 %
Pseudomonas viridiflava = assay: In vitro antibacterial activity against Pseudomonas viridiflava 8 assessed as inhibition at 0.1 %
[4] = system: Pseudomonas savastanoi pv. glycinea; assay: In vitro antibacterial activity against Pseudomonas syringae pv. glycinea S1 assessed as inhibition at 0.1 %
[5] = system: Pseudomonas savastanoi pv. phaseolicola; assay: In vitro antibacterial activity against Pseudomonas syringae pv. phaseolicola E81 assessed as inhibition at 0.1 %
[6] = system: Xanthomonas phaseoli pv. phaseoli; assay: In vitro antibacterial activity against Xanthomonas campestris pv. phaseoli assessed as inhibition at 0.1 %

| SMILES | diameter of the inhibition zone (DIZ) (Agrobacterium sp.) [cm] | diameter of the inhibition zone (DIZ) [1] [cm] | diameter of the inhibition zone (DIZ) [2] [cm] | diameter of the inhibition zone (DIZ) (Botrytis cinerea) [cm] | further results |
| --- | --- | --- | --- | --- | --- |
| Cc1cc2nc(N)n(Cc3cccc(F)c3)c2cc1C | 3 | 3 | 3 | – | – |
| CCCCCCn1c(N)nc2ccccc21 | – | – | – | 3 | Efficacy [3]: 30% |
| Cc1cc2ncn(Cc3cccc(Cl)c3)c2cc1C | – | 1 | 2 | 1 | diameter of the inhibition zone (DIZ) (Pseudomonas viridiflava): 2 cm; diameter of the inhibition zone (DIZ) [4]: 2 cm; inhibition [5]: inactive; inhibition [6]: inactive |
| CCCCCCn1c(/N=C/c2ccc([N+](=O)[O-])o2)nc2ccccc21 | 3 | 2 | 2 | – | Efficacy [3]: 70% |
| CCn1cnc2cc(C)c(C)cc21 | 3 | 3 | 3 | – | – |
| Cc1cc2ncn(Cc3ccccc3C)c2cc1C | 3 | 2 | 3 | – | – |
| Cc1cc2ncn(Cc3ccc(Cl)cc3)c2cc1C | – | 1 | 1 | – | Efficacy [3]: 30%; inhibition (Botrytis cinerea): inactive; inhibition (Pseudomonas viridiflava): inactive; inhibition [4]: inactive; inhibition [5]: inactive; inhibition [6]: inactive |
| CCCCn1cnc2cc(C)c(C)cc21 | 3 | 2 | 2 | 3 | – |
| COc1cccc(Cn2cnc3cc(C)c(C)cc32)c1 | 3 | 2 | 3 | – | – |
| Cc1ccc(Cn2c(N)nc3ccccc32)cc1 | 3 | 3 | 3 | – | – |
| Nc1nc2ccccc2n1Cc1ccc(Cl)cc1 | – | 1 | – | 1 | diameter of the inhibition zone (DIZ) (Pseudomonas viridiflava): 1 cm; diameter of the inhibition zone (DIZ) [4]: 1 cm; diameter of the inhibition zone (DIZ) [5]: 1 cm; inhibition [6]: inactive; inhibition [2]: inactive |
| Cc1cc2nc(/N=C/c3ccc([N+](=O)[O-])o3)n(Cc3cccc(F)c3)c2cc1C | 3 | – | 3 | – | diameter of the inhibition zone (DIZ) [6]: 3 cm |
| Cc1ccccc1Cn1c(N)nc2ccccc21 | 3 | 3 | 3 | – | – |
| Cc1cccc(Cn2cnc3cc(C)c(C)cc32)c1 | 3 | 2 | 3 | – | – |
| Nc1nc2ccccc2n1Cc1ccccc1Cl | – | 3 | 2 | – | inhibition (Botrytis cinerea): inactive; diameter of the inhibition zone (DIZ) (Pseudomonas viridiflava): 2 cm; inhibition [4]: inactive; inhibition [5]: inactive; diameter of the inhibition zone (DIZ) [6]: 1 cm |
| Cc1ccc(Cn2cnc3cc(C)c(C)cc32)cc1 | – | 2 | – | 1 | diameter of the inhibition zone (DIZ) (Pseudomonas viridiflava): 1 cm; diameter of the inhibition zone (DIZ) [4]: 1 cm; diameter of the inhibition zone (DIZ) [5]: 1 cm; inhibition [6]: inactive; inhibition [2]: inactive |
| CC(C)(C)n1c(N)nc2ccccc21 | – | – | – | 3 | – |
| O=[N+]([O-])c1ccc(/C=N/c2nc3ccccc3n2Cc2cccc(Cl)c2)o1 | – | – | 3 | 1 | Efficacy [3]: 100%; inhibition (Pseudomonas viridiflava): inactive; diameter of the inhibition zone (DIZ) [4]: 1 cm; inhibition [5]: inactive; inhibition [1]: inactive; inhibition [6]: inactive |
| Cc1ccc(Cn2c(/N=C/c3ccc([N+](=O)[O-])o3)nc3cc(C)c(C)cc32)cc1 | 3 | – | 3 | – | diameter of the inhibition zone (DIZ) [6]: 3 cm |
| O=[N+]([O-])c1ccc(/C=N/c2nc3ccccc3n2Cc2ccccc2Cl)o1 | – | – | – | 1 | Efficacy [3]: 70%; inhibition (Pseudomonas viridiflava): inactive; diameter of the inhibition zone (DIZ) [4]: 3 cm; diameter of the inhibition zone (DIZ) [5]: 1 cm; inhibition [1]: inactive; inhibition [6]: inactive; inhibition [2]: inactive |
| Cc1ccc(Cn2c(N)nc3cc(C)c(C)cc32)cc1 | 3 | 2 | 2 | – | – |
| Cc1cc2nc(/N=C/c3ccc([N+](=O)[O-])o3)n(Cc3ccccc3Cl)c2cc1C | 3 | – | 3 | – | diameter of the inhibition zone (DIZ) [6]: 3 cm |

| SMILES | diameter of the inhibition zone (DIZ) (Agrobacterium sp.) [cm] | diameter of the inhibition zone (DIZ) [1] [cm] | diameter of the inhibition zone (DIZ) [2] [cm] | diameter of the inhibition zone (DIZ) (Botrytis cinerea) [cm] | further results |
| --- | --- | --- | --- | --- | --- |
| Cc1cc2nc(N)n(/N=C/c3ccc([N+](=O)[O-])o3)c2cc1C | 3 | 3 | 3 | – | – |
| Cc1ccccc1Cn1c(/N=C/c2ccc([N+](=O)[O-])o2)nc2ccccc21 | 3 | 3 | 3 | – | – |
| Cc1cc2c(cc1C)[n+](N)cn2Cc1ccc(Cl)cc1.O=S(=O)([O-])c1ccccc1 | – | 2 | 2 | – | diameter of the inhibition zone (DIZ) (Pseudomonas viridiflava): 2 cm; inhibition [4]: inactive; inhibition [5]: inactive; diameter of the inhibition zone (DIZ) [6]: 2 cm |
| CCCCn1c(/N=C/c2ccc([N+](=O)[O-])o2)nc2ccccc21 | 3 | 3 | 1 | 3 | Efficacy [3]: 70% |
| O=[N+]([O-])c1ccc(/C=N/c2nc3ccccc3n2Cc2cccc(F)c2)o1 | 3 | 3 | 3 | – | – |
| Cc1cc2nc(/N=C/c3ccc([N+](=O)[O-])o3)[nH]c2cc1C | 3 | 3 | 3 | – | – |
| Nc1nc2ccccc2n1/N=C/c1ccc([N+](=O)[O-])o1 | – | 2 | 1 | – | diameter of the inhibition zone (DIZ) (Pseudomonas viridiflava): 2 cm; diameter of the inhibition zone (DIZ) [4]: 2 cm; diameter of the inhibition zone (DIZ) [5]: 2 cm; diameter of the inhibition zone (DIZ) [6]: 3 cm |
| Cc1cc2nc(/N=C/c3ccc([N+](=O)[O-])o3)n(Cc3cccc(Cl)c3)c2cc1C | 3 | – | – | – | inhibition (Botrytis cinerea): inactive |
| Cc1cc2nc(N)n(Cc3cccc(Cl)c3)c2cc1C | 2 | 3 | 3 | 3 | diameter of the inhibition zone (DIZ) (Pseudomonas viridiflava): 2 cm; diameter of the inhibition zone (DIZ) [4]: 2 cm; diameter of the inhibition zone (DIZ) [5]: 2 cm; diameter of the inhibition zone (DIZ) [6]: 3 cm |
| CCn1c(/N=C/c2ccc([N+](=O)[O-])o2)nc2ccccc21 | 3 | 3 | 1 | 3 | Efficacy [3]: 70% |
| CCCCn1c(/N=C/c2ccc([N+](=O)[O-])o2)nc2cc(C)c(C)cc21 | – | – | – | 3 | – |
| Cc1cccc(Cn2c(/N=C/c3ccc([N+](=O)[O-])o3)nc3ccccc32)c1 | 3 | 3 | 2 | – | – |
| Cc1cc2nc(N)n(Cc3ccc(Cl)cc3)c2cc1C | – | 2 | 1 | – | diameter of the inhibition zone (DIZ) (Pseudomonas viridiflava): 1 cm; diameter of the inhibition zone (DIZ) [4]: 2 cm; diameter of the inhibition zone (DIZ) [5]: 2 cm; diameter of the inhibition zone (DIZ) [6]: 1 cm |
| Cc1cccc(OCn2c(/N=C/c3ccc([N+](=O)[O-])o3)nc3ccccc32)c1 | 3 | 3 | 3 | – | – |
| Cc1cc2ncn(C(C)(C)C)c2cc1C | 3 | 3 | 3 | – | – |
| O=[N+]([O-])c1ccc(/C=N/c2nc3ccccc3n2Cc2ccc(Cl)cc2)o1 | 3 | – | – | – | inhibition (Botrytis cinerea): inactive |
| Nc1nc2ccccc2n1Cc1cccc(F)c1 | 3 | 3 | 3 | – | – |
| CCn1c(N)nc2cc(C)c(C)cc21 | 2 | 3 | 3 | 3 | – |
| CCn1c(N)nc2ccccc21 | 3 | 3 | 1 | 3 | – |
| O=[N+]([O-])c1ccc(/C=N/c2nc3ccccc3[nH]2)o1 | 3 | 2 | 1 | 3 | diameter of the inhibition zone (DIZ) (Pseudomonas viridiflava): 2 cm; diameter of the inhibition zone (DIZ) [4]: 2 cm; diameter of the inhibition zone (DIZ) [5]: 2 cm; diameter of the inhibition zone (DIZ) [6]: 3 cm |
| Cc1cc2nc(N)n(Cc3ccccc3Cl)c2cc1C | 3 | 2 | 3 | – | – |
